# Results published in ChEMBL document CHEMBL5537204, “Identifying Marine-Derived Tanzawaic Acid Derivatives as Novel Inhibitors against Osteoclastogenesis and Osteoporosis via Downregulation of NF-κB and NFATc1 Activation” (J Med Chem, 2024).
# Calls of active or inactive are those of the source. No cut-off for these calls is given here.
# Assays:
# RAW264.7 [1] = test: Inhibition of LPS-induced NF-kappaB activation in mouse RAW264.7 cells expressing luciferase gene at 20 uM preincubated with compound for 30 mins followed by LPS-induction and measured after 6 hrs by luciferase reporter gene assay; format: cell-based; conditions: time 6.5 hrs
# RAW264.7 [2] = test: Inhibition of LPS-induced NF-kappaB activation in mouse RAW264.7 cells expressing luciferase gene preincubated with compound for 30 mins followed by LPS-induction and measured after 6 hrs by luciferase reporter gene assay; format: cell-based; conditions: dose 20.0 µM, time 6.5 hrs
# BMMC [3] = test: Anti-osteoporosis activity in C57BL/6 mouse BMMC cells assessed as reduction in RANKL-induced osteoclasts formation at 10 uM incubated for 4 days in presence of MCSF by TRAP staining based assay; format: functional
# [4] = Toxicity in C57BL/6 mouse assessed as animal death at 60 mg/kg, IG administered every 3 days for 46 days; format: organism-based; conditions: in vivo, po, 1104 h, time 46 day
# [5] = Toxicity in C57BL/6 mouse assessed as abnormal behavior at 60 mg/kg, IG administered every 3 days for 46 days; format: organism-based; conditions: in vivo, po, 1104 h, time 46 day
# Mus musculus [6] = test: Anti-osteoporosis activity in OVX-induced osteoporosis C57BL/6 mouse model assessed as prevention of bone loss in femur at 60 mg/kg, IG administered every 3 days for 8 weeks; format: functional, organism-based
# Mus musculus [7] = test: Anti-osteoporosis activity in OVX-induced osteoporosis C57BL/6 mouse model assessed as increase in BV/TV in femur at 60 mg/kg, IG administered every 3 days for 8 weeks; format: functional, organism-based
# Mus musculus [8] = test: Anti-osteoporosis activity in OVX-induced osteoporosis C57BL/6 mouse model assessed as increase in connectivity density in femur at 60 mg/kg, IG administered every 3 days for 8 weeks; format: functional, organism-based
# BMMC [9] = test: Anti-osteoclastogenesis activity in C57BL/6 mouse BMMC cells assessed as reduction in RANKL-induced osteoclasts formation at 5 uM incubated for 4 days in presence of MCSF by TRAP staining based assay; format: functional; set-up: scale not given: the % may be the effect or the level left; conditions: time 4 day
# BMMC [10] = test: Anti-osteoclastogenesis activity in C57BL/6 mouse BMMC cells assessed as reduction in RANKL-induced osteoclasts formation incubated for 4 days in presence of MCSF by TRAP staining based assay; format: functional, cell-based; conditions: dose 1-10 µM, time 4.0 day
# BMMC [11] = test: Cytotoxicity against mouse BMMC cells assessed as reduction in cell viability at 10 uM incubated for 4 days by MTT assay; format: toxicity, cell-based; conditions: 96 h, time 4 day
# RAW264.7 [12] = test: Inhibition of RANKL-induced NF-kappaB activation in mouse RAW264.7 cells expressing luciferase gene preincubated with compound for 4 hrs followed by LPS-induction and measured after 6 hrs by luciferase reporter gene assay; format: cell-based; conditions: dose 1-10 µM, time 10.0 hrs
# RAW264.7 [13] = test: Inhibition of RANKL-induced NF-kappaB activation in mouse RAW264.7 cells expressing luciferase gene assessed as suppression of IkappaBalpha degradation at 1 to 10 uM preincubated with compound for 4 hrs followed by LPS-induction and measured after 6 hrs by Western blot analysis; format: cell-based; conditions: dose 1-10 µM, time 10.0 hrs
# RAW264.7 [14] = test: Inhibition of RANKL-induced NF-kappaB activation in mouse RAW264.7 cells expressing luciferase gene assessed as reduction in p65 protein level in nucleus preincubated with compound for 4 hrs followed by LPS-induction and measured after 6 hrs by Western blot analysis; format: cell-based; conditions: dose 1-10 µM, time 10.0 hrs
# BMMC [15] = test: Anti-osteoclastogenesis activity in RANKL-induced C57BL/6 mouse BMMC cells assessed as suppression of NFATc1 expression level in nucleus at 1 to 10 uM pretreated with compound for 4 hrs followed by RANKL-induction and measured after 24 hrs by Western blot analysis; format: functional, cell-based; conditions: dose 1-10 µM, time 28.0 hrs
# BMMC [16] = test: Anti-osteoclastogenesis activity in RANKL-induced C57BL/6 mouse BMMC cells assessed as inhibition of TRAP mRNA expression pretreated with compound for 4 hrs followed by RANKL-induction and measured after 24 hrs by RT-PCR analysis; format: functional, cell-based; conditions: dose 1-10 µM, time 28.0 hrs
# BMMC [17] = test: Anti-osteoclastogenesis activity in RANKL-induced C57BL/6 mouse BMMC cells assessed as inhibition of Atp6v0d2 mRNA expression pretreated with compound for 4 hrs followed by RANKL-induction and measured after 24 hrs by RT-PCR analysis; format: functional, cell-based; conditions: dose 1-10 µM, time 28.0 hrs
# BMMC [18] = test: Anti-osteoclastogenesis activity in RANKL-induced C57BL/6 mouse BMMC cells assessed as inhibition of OSCAR mRNA expression pretreated with compound for 4 hrs followed by RANKL-induction and measured after 24 hrs by RT-PCR analysis; format: functional, cell-based; conditions: dose 1-10 µM, time 28.0 hrs
# [19] = target: Transcription factor p65 (Mus musculus) (UniProt Q04207); test: Binding affinity to NF-kappaB p65 in mouse RAW264.7 cells assessed as thermal stabilization at 10 uM at 37 to 57 degreeC incubated for 4 hrs by CETSA assay; format: cell-based
# Transcription factor p65 = Transcription factor p65 (Mus musculus, UniProt Q04207); test: Binding affinity to NF-kappaB p65 in mouse RAW264.7 cells assessed as dissociation constant by SPR analysis
# RAW264.7 [20] = test: Downregulation of p65 expression in RANKL-induced mouse RAW264.7 cells expressing NFATc1 at 10 uM pretreated with compound for 4 hrs followed by RANKL-induction and measured after 24 hrs by Western blot analysis; format: functional, cell-based; conditions: time 28.0 hrs
# [21] = Toxicity in C57BL/6 mouse assessed as animal death at 5 to 10 mg/kg, IG administered every 3 days for 46 days; format: organism-based; conditions: in vivo, po, 1104 h, dose 5-10 mg/kg, time 46 day
# [22] = Toxicity in C57BL/6 mouse assessed as abnormal behavior at 5 to 10 mg/kg, IG administered every 3 days for 46 days; format: organism-based; conditions: in vivo, po, 1104 h, dose 5-10 mg/kg, time 46 day
# Mus musculus [23] = test: Anti-osteoporosis activity in OVX-induced osteoporosis C57BL/6 mouse model assessed as prevention of bone loss in femur at 5 to 10 mg/kg, IG administered every 3 days for 8 weeks; format: functional, organism-based; conditions: dose 5-10 mg/kg
# Mus musculus [24] = test: Anti-osteoporosis activity in OVX-induced osteoporosis C57BL/6 mouse model assessed as increase in BV/TV in femur at 5 to 10 mg/kg, IG administered every 3 days for 8 weeks; format: functional, organism-based; conditions: dose 5-10 mg/kg
# Mus musculus [25] = test: Anti-osteoporosis activity in OVX-induced osteoporosis C57BL/6 mouse model assessed as increase in connectivity density in femur at 5 to 10 mg/kg, IG administered every 3 days for 8 weeks; format: functional, organism-based; conditions: dose 5-10 mg/kg
# Mus musculus [26] = test: Anti-osteoporosis activity in OVX-induced osteoporosis C57BL/6 mouse model assessed as prevention of bone loss in femur at 5 to 10 mg/kg, IG administered every 3 days for 8 weeks by H and E staining based analysis; format: functional, organism-based; conditions: dose 5-10 mg/kg
# Mus musculus [27] = test: Anti-osteoporosis activity in OVX-induced osteoporosis C57BL/6 mouse model assessed as prevention of bone loss in femur at 10 mg/kg, IG administered every 3 days for 8 weeks; format: functional, organism-based
# Mus musculus [28] = test: Anti-osteoporosis activity in OVX-induced osteoporosis C57BL/6 mouse model assessed as downregulation of p65 expression in bone at 5 to 10 mg/kg, IG administered every 3 days for 8 weeks by IHC analysis; format: functional, organism-based; conditions: dose 5-10 mg/kg
# Mus musculus [29] = test: Anti-osteoporosis activity in OVX-induced osteoporosis C57BL/6 mouse model assessed as downregulation of NFATc1 expression in bone at 5 to 10 mg/kg, IG administered every 3 days for 8 weeks by IHC analysis; format: functional, organism-based; conditions: dose 5-10 mg/kg
# Transcription factor p65, sequence (Q04207 whole entry): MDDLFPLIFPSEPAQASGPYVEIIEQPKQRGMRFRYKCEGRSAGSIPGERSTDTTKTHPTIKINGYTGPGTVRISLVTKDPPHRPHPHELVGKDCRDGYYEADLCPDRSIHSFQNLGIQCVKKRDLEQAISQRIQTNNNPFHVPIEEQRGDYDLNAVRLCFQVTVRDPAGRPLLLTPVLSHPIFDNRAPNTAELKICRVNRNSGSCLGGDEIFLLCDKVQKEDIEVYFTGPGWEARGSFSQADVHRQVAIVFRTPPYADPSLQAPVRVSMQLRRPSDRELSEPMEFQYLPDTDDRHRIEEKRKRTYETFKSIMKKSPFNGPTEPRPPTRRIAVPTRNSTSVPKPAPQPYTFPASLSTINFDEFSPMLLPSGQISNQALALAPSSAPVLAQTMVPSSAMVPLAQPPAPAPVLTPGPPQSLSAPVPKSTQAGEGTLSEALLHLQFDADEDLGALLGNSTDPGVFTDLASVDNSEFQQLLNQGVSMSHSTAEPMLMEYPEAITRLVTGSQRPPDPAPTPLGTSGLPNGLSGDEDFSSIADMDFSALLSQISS
# Transcription factor p65 (Mus musculus), sequence (Q04207 whole entry): as above
compound,measurement,setting,value
Cc1ccc2c(c1/C=C/C=C/C(=O)O)[C@H](C)C[C@H](C)C2,inhibition,RAW264.7 [1],Active
CO[C@H]1C=C(C)[C@H](/C=C/C=C/C(=O)O)[C@@H]2[C@@H]1C[C@@H](CO)C[C@H]2C,inhibition,RAW264.7 [2],Dose-Dependent Effect
C[C@@H]1C[C@](O)(CO)C[C@@H]2C=C[C@H](C)[C@H](/C=C/C=C/C(=O)O)[C@@H]12,inhibition,RAW264.7 [2],Dose-Dependent Effect
CC1=CC(=O)[C@H]2C[C@@H](C)C[C@@H](C)[C@@H]2[C@]1(O)/C=C/C=C/C(=O)O,inhibition,RAW264.7 [2],Dose-Dependent Effect
CC(=O)OC[C@H]1C[C@@H](C)[C@H]2[C@@H](C=C[C@H](C)[C@]2(O)/C=C/C=C/C(=O)O)C1,inhibition,RAW264.7 [2],Dose-Dependent Effect
C[C@@H]1[C@@H](Cl)[C@H](O)[C@@H]2C[C@@](C)(O)C[C@H](C)[C@H]2[C@]1(O)/C=C/C=C/C(=O)O,inhibition,RAW264.7 [2],Dose-Dependent Effect
CC(=O)OC[C@@H](C)C[C@@H](C)c1cccc(C)c1/C=C/C=C/C(=O)O,inhibition,RAW264.7 [2],Dose-Dependent Effect
same,Activity,BMMC [3]; time 4.0 day,Active
C[C@H]1C[C@H]2[C@@H](O)[C@H](Cl)[C@@H](C)[C@@](O)(/C=C/C=C/C(=O)O)[C@@H]2[C@@H](C)C1,inhibition,RAW264.7 [2],Dose-Dependent Effect
same,Activity,BMMC [3]; time 4.0 day,Active
Cc1ccc2c(c1/C=C/C=C/C(=O)O)[C@H](C)C[C@H](C)[C@@H]2O,inhibition,RAW264.7 [1],Active
CC(=O)OC[C@@H]1Cc2ccc(C)c(/C=C/C=C/C(=O)O)c2[C@H](C)C1,inhibition,RAW264.7 [1],Active
C[C@@H]1Cc2ccc(CO)c(/C=C/C=C/C(=O)O)c2[C@H](C)C1,inhibition,RAW264.7 [1],Active
Cc1ccc2c(c1/C=C/C=C/C(=O)O)[C@H](C)C[C@H](C)[C@H]2O,inhibition,RAW264.7 [1],Active
C[C@@H]1C[C@@](C)(O)C[C@@H]2C=C[C@H](C)[C@H](/C=C/C(=O)O)[C@@H]12,inhibition,RAW264.7 [2],Dose-Dependent Effect
CC1=C(/C=C/C=C/C(=O)O)[C@H]2[C@H](C=C1)C[C@H](C)C[C@@H]2C,inhibition,RAW264.7 [2],Dose-Dependent Effect
C[C@@H]1C[C@@](C)(O)C[C@@H]2C=C[C@H](C)[C@](O)(/C=C/C=C/C(=O)O)[C@@H]12,inhibition,RAW264.7 [2],Dose-Dependent Effect
same,Activity,BMMC [3]; time 4.0 day,Active
Cc1ccc2c(c1/C=C/C=C/C(=O)O)[C@H](C)C[C@@](C)(O)C2,inhibition,RAW264.7 [2],Dose-Dependent Effect
same,inhibition,RAW264.7 [1],Active
C[C@]12CC[C@@H]3c4ccc(O)cc4CC[C@H]3[C@@H]1CC[C@@H]2O [ESTRADIOL],Activity,[4],Non-Toxic
same,Activity,[5],Non-Toxic
same,Activity,Mus musculus [6],Active
same,Activity,Mus musculus [7],Active
same,Activity,Mus musculus [8],Active
CC1=C(/C=C/C=C/C(=O)O)[C@@H]2[C@H](C[C@](C)(O)C[C@H]2C)[C@@H](O)[C@H]1O,inhibition,RAW264.7 [2],Dose-Dependent Effect
CC(=O)C[C@@H](C)c1cccc(C)c1/C=C/C=C/C(=O)O,inhibition,RAW264.7 [2],Dose-Dependent Effect
C[C@@H]1[C@@H](O)[C@H](O)[C@@H]2C[C@H](CO)C[C@H](C)[C@H]2[C@]1(O)/C=C/C=C/C(=O)O,inhibition,RAW264.7 [2],Dose-Dependent Effect
CC(=O)OCc1ccc2c(c1/C=C/C=C/C(=O)O)[C@H](C)C[C@H](C)C2,inhibition,RAW264.7 [1],Active
C[C@@H]1C[C@@H]2[C@@H](C(=O)O)[C@H](C)[C@](O)(/C=C/C=C/C(=O)O)[C@H]2[C@H](C)C1,inhibition,RAW264.7 [2],Dose-Dependent Effect
Cc1ccc2c(c1/C=C/C=C/C(=O)O)[C@H](C)C[C@H](CO)C2,inhibition,RAW264.7 [1],Active
C[C@@H]1C[C@@](C)(O)C[C@@H]2C=C[C@H](C)[C@H](/C=C/C=C/C(=O)O)[C@@H]12,inhibition,RAW264.7 [2],Dose-Dependent Effect
C[C@@H]1C[C@@](C)(O)C[C@@H]2C=C[C@@](C)(/C=C/C=C/C(=O)O)C(=O)[C@@H]12,inhibition,RAW264.7 [2],Dose-Dependent Effect
C[C@@H]1[C@@H](Cl)[C@H](O)[C@@H]2C[C@H](CO)C[C@H](C)[C@H]2[C@@H]1/C=C/C=C/C(=O)O,inhibition,RAW264.7 [2],Dose-Dependent Effect
same,Activity,BMMC [3]; time 4.0 day,Active
Cc1cccc([C@H](C)C[C@H](C)CO)c1/C=C/C=C/C(=O)O,inhibition,RAW264.7 [2],Dose-Dependent Effect
same,Activity,BMMC [3]; time 4 day,69.7%
same,Activity,BMMC [9],49.2%
same,Activity,BMMC [10],Dose-Dependent Effect
same,Activity,BMMC [11],Non-Toxic
same,inhibition,RAW264.7 [12],Dose-Dependent Effect
same,inhibition,RAW264.7 [13],Active
same,inhibition,RAW264.7 [14],Dose-Dependent Effect
same,Activity,BMMC [15],Active
same,Activity,BMMC [16],Dose-Dependent Effect
same,Activity,BMMC [17],Dose-Dependent Effect
same,Activity,BMMC [18],Dose-Dependent Effect
same,Activity,[19],Active
same,Kd,Transcription factor p65,44.7 µM
same,Activity,RAW264.7 [20],Active
same,Activity,[21],Non-Toxic
same,Activity,[22],Non-Toxic
same,Activity,Mus musculus [23],Active
same,Activity,Mus musculus [24],Active
same,Activity,Mus musculus [25],Active
same,Activity,Mus musculus [26],Active
same,Activity,Mus musculus [27],Active
same,Activity,Mus musculus [28],Active
same,Activity,Mus musculus [29],Active
Cc1ccc2c(c1/C=C/C=C/C(=O)O)[C@H](C)C[C@@](C)(O)[C@H]2O,inhibition,RAW264.7 [2],Dose-Dependent Effect
same,inhibition,RAW264.7 [1],Active
same,Activity,BMMC [3]; time 4.0 day,Active
